Laboratory results reported in US20260234549A1, “NON-INVASIVE TUNING OF PROTEIN ALIGNMENT” (NEW YORK UNIVERSITY IN ABU DHABI CORPORATION, priority 2023, published 2026).

How the values were obtained:
[1] = system: fibroblasts cultured on matrix with aligned collagen fibrils (30° condition); assay: αSMA gene expression (RT-qPCR) of fibroblasts on aligned collagen matrix treated with inhibitors; type: cell-based, human; details: 3 days; 1 μM verteporfin, 10 μM blebbistatin, 20 μM Y-27632, 2 μM SB-431542; 30° aligned matrix; normalized to fibroblasts
Method: Quantitative gene expression analysis: Gene expression analysis for fibroblast differentiation was performed using an established protocol. Briefly, TRIzol (Thermo Fisher Scientific, Dreieich, Germany) was used to extract total RNA. The obtained RNA was converted into complementary DNA (cDNA) using a high-capacity cDNA reverse transcription kit (Applied Biosystems, Waltham, USA). The concentration and the ratio of absorbance at 260 nm and 280 nm of cDNA were quantified using a Nanodrop (Thermo Fisher Scientific, Dreieich, Germany) prior to performing gene expression analysis. Ribosomal protein S26 (RPS26) was used as a reference gene. […] The primer sequences are listed in Table 1. qPCR was performed using SYBR Green PCR Master Mix (Applied Biosystems, Waltham, USA). The qPCR procedure was set as follows: denaturation for 5 min at 95° C.; 45 cycles of denaturation (95° C., 15 s), annealing under primer-specific conditions (30 s) and target gene-specific extension (30 s at 72° C.). The fluorescence signal was measured for 20 s at 72° C. To confirm the specificity of the PCR products, melting curve analysis was performed at the end of each run. Experiments were performed in 4 replicates. Treatment with inhibitors: Fibroblasts cultured onto matrix reconstituted on inclined surfaces with an angle of 30° were treated with 1 μM verteporfin (YAP inhibitor; Sigma-Aldrich, Darmstadt, Germany), 10 μM blebbistatin (myosin inhibitor; Tocris, Bristol, United Kingdom), 20 μM Y-27632 (Rho-associated kinase (ROCK) inhibitor; Tocris, Bristol, United Kingdom) and 2 μM SB-431542 (TGF-31 receptor kinase inhibitor; Sigma-Aldrich, Darmstadt, Germany) for 3 days. After 3 days of treatment, RNA was extracted for the study of αSMA expression using qPCR, as stated in the quantitative gene analysis section. Experiments were performed in 6 replicates.

[2] = system: fibroblasts cultured on matrix with aligned collagen fibrils (30° condition); assay: Live/dead assay (DRAQ7, flow cytometry) of inhibitor-treated fibroblasts on aligned matrix; type: cell-based; details: 3 days; 1 μM verteporfin, 10 μM blebbistatin, 20 μM Y-27632, 2 μM SB-431542; 30° aligned matrix
Method: Treatment with inhibitors: Fibroblasts cultured onto matrix reconstituted on inclined surfaces with an angle of 30° were treated with 1 μM verteporfin (YAP inhibitor; Sigma-Aldrich, Darmstadt, Germany), 10 μM blebbistatin (myosin inhibitor; Tocris, Bristol, United Kingdom), 20 μM Y-27632 (Rho-associated kinase (ROCK) inhibitor; Tocris, Bristol, United Kingdom) and 2 μM SB-431542 (TGF-31 receptor kinase inhibitor; Sigma-Aldrich, Darmstadt, Germany) for 3 days. After 3 days of treatment, RNA was extracted for the study of αSMA expression using qPCR, as stated in the quantitative gene analysis section. Experiments were performed in 6 replicates.
Quantitative analysis of cell number and dead cells: Collagen matrices were digested using 2 mg/mL type IV collagenase (Thermo Fisher Scientific, Dreieich, Germany) for 15 min under standard cell culture conditions. Afterwards, cells were stained with DRAQ7 (dead cell staining dye; Biolegend, San Diego, USA) for 10 min on ice. Cells were analyzed using an Attune NxT Flow Cytometer equipped with an autosampler (Thermo Fisher Scientific, Dreieich, Germany). […] The percentage of dead cells was quantified by counting the number of cells that were positive for DRAQ7. At least 20,000 cells were analyzed per condition and replicate. […]

Row | Compound | αSMA gene expression [1] | cell death (percentage of dead cells) [2]
1 | NC(=O)c1ccc(-c2nc(-c3ccc4c(c3)OCO4)c(-c3ccccn3)[nH]2)cc1 [SB-431542] | significantly reduced | –
2 | C[C@@H](N)[C@H]1CC[C@H](C(=O)Nc2ccncc2)CC1 [Y-27632] | significantly reduced | –
3 | Cc1ccc2c(c1)C(=O)C1(O)CCN(c3ccccc3)C1=N2 (stereo not shown) [blebbistatin] | significantly reduced | without harming cells
